Tests used:
[1] = cited from earlier work; for times sweeter than sucrose: Tanaka 1987, Phillips 1989; for times sweeter than sucrose (sensory evaluations): Crammer and Ikan 1986
Water solubility = assay type: physicochemical; details: in water at 25° C.
[2] = Chang and Cook 1983; cited from earlier work
[3] = Kinghorn 2002; cited from earlier work

## C=C1C[C@@]23CC[C@H]4[C@@](C)(CCC[C@@]4(C)C(=O)O[C@@H]4O[C@H](CO)[C@@H](O)[C@H](O)[C@H]4O)[C@@H]2CC[C@]1(O[C@@H]1O[C@H](CO)[C@@H](O)[C@H](O)[C@H]1O[C@@H]1O[C@@H](C)[C@H](O)[C@@H](O)[C@H]1O)C3 [Dulcoside A]
[1]
  times sweeter than sucrose: 30 times

## C=C1CC23CCC4C(C)(C(=O)[O-])CCCC4(C)C2CCC1(OC1OC(CO)C(O)C(OC2OC(CO)C(O)C(O)C2O)C1OC1OC(CO)C(O)C(O)C1O)C3.[K+] (stereo not shown) [Example 5, reb B potassium salt]
Water solubility
  water solubility of obtained material: about 0.1 % (w/v)

## C=C1C[C@@]23CC[C@H]4[C@@](C)(CCC[C@@]4(C)C(=O)O[C@@H]4O[C@H](CO)[C@@H](O)[C@H](O)[C@H]4O)[C@@H]2CC[C@]1(O[C@@H]1O[C@H](CO)[C@@H](O)[C@H](O[C@@H]2O[C@H](CO)[C@@H](O)[C@H](O)[C@H]2O)[C@H]1O[C@@H]1O[C@H](CO)[C@@H](O)[C@H](O)[C@H]1O)C3 [Reb A, rebaudioside A]
[1]
  times sweeter than sucrose (sensory evaluations): 350-450 times
[2]
  stability in carbonated beverages: heat and pH stability

## C=C1C[C@@]23CC[C@H]4[C@@](C)(CCC[C@@]4(C)C(=O)O[C@@H]4O[C@H](CO)[C@@H](O)[C@H](O)[C@H]4O)[C@@H]2CC[C@]1(O[C@@H]1O[C@H](CO)[C@@H](O)[C@H](O)[C@H]1O[C@@H]1O[C@H](CO)[C@@H](O)[C@H](O)[C@H]1O)C3 [stevioside]
[1]
  times sweeter than sucrose: 110-270 times
[2]
  stability in carbonated beverages: heat and pH stability

## Rebaudioside B [reb B]
[3]
  water solubility (reported): about 0.1%
[1]
  times sweeter than sucrose (sensory evaluations): 300-350 times

## rebaudioside B [Example 3]
Water solubility
  water solubility of obtained material: about 0.1 % (w/v)

## rebaudioside C
[1]
  times sweeter than sucrose: 40-60 times

— patent US11712055B2, “Stevia composition” (PURECIRCLE SDN. BHD., priority 2011, dated 2023)
